The text below walks through data of publication PMC12655621 (Pharmaceuticals, 2025).

A short description of data set [1]: Shake-flask logD7.4 n-octanol/PBS. In kind it is physicochemical. The settings on record: n-octanol/PBS pH 7.4, shake-flask, room temperature. The method, then:
A PBS (pH 7.4) solution was saturated with n-octanol, and n-octanol was saturated with PBS (pH 7.4) by vigorous shaking, followed by equilibration for at least 24 h to ensure complete phase separation. The reference compound 4-chloro-6,7-bis(2-methoxyethoxy)quinazoline and analogs 1–7 were dissolved in the octanol phase (previously saturated with PBS), and equal volumes of the aqueous phase (previously saturated with octanol) were added. Final assay solutions were prepared at 10 μM by diluting 2 μL of a 5 mM stock solution into 1 mL of total volume. The biphasic mixtures were shaken for 24 h at room temperature. After equilibration, both the octanolic and aqueous phases were analyzed by UV–visible spectrophotometry using a Shimadzu UV-1603. […] LogD7.4 values were calculated as […]. Each determination was performed in triplicate. Regression analyses and curve fittings were performed using GraphPad Prism 8.0 software (GraphPad Software Inc., LaJolla, CA, USA).

For the next data set, the system named is U87 MG. Further details: method as in earlier work. The settings on record: human U87 MG glioma cells; errors omitted; ref 19 (compounds 8 and 9: ref 13); cited from earlier work.
A further data set concerns F98. Further details: method as in earlier work. As to conditions: F98 rat glioma cells; errors omitted; ref 19 (compounds 8 and 9: ref 13); cited from earlier work.
The next data set relates to C6. Further details: method as in earlier work. The settings on record: C6 glioma cells; errors omitted; ref 19 (compounds 8 and 9: ref 13); cited from earlier work.
Data set [2] has as its system Mix of primary glial cell culture. Further details: method as in earlier work. The settings on record: mix of primary glial cell culture (healthy cells); errors omitted; ref 19 (compounds 8 and 9: ref 13); cited from earlier work.

In turn, `COCCOc1cc2ncnc(Cl)c2cc1OCCOC` [4-chloro-6,7-bis(2-methoxyethoxy)quinazoline] yielded a logD at 24 h in data set [1] of 1.02.
For `C#Cc1cccc(Nc2ncnc3cc(OCCOC)c(OCCOC)cc23)c1` [Erl, erlotinib], the IC50 was 63 µM with U87 MG, above 100 µM in the data set on F98, above 100 µM in the data set with C6 and above 100 µM in data set [2].
